Source: patent US8653098B2, “Pyrazolopyridine PI3K inhibitor compounds and methods of use” (Genentech, Inc., priority 2008, dated 2014)

Columns and labels:
PC3 = test: In Vitro Cell Proliferation Assay (CellTiter-Glo), PC3; assay type: cell-based; conditions: Homo sapiens, PC-3; PC3, Prostate, mutation status PTEN
Method: (§1) The in vitro potency of Formula I exemplary compounds was measured by the cell proliferation assay, CellTiter-Glo® Luminescent Cell Viability Assay, commercially available from Promega Corp., Madison, Wis. (Example 33). This homogeneous assay method is based on the recombinant expression of Coleoptera luciferase (U.S. Pat. No. 5,583,024; U.S. Pat. No. 5,674,713; U.S. Pat. No. 5,700,670) and determines the number of viable cells in culture based on quantitation of the ATP present, an indicator of metabolically active cells (Crouch et al (1993) J. Immunol. Meth. 160:81-88; U.S. Pat. No. 6,602,677).
(§2) format, making it amenable to automated high-throughput screening (HTS) (Cree et al (1995) Anti Cancer Drugs 6:398-404). The homogeneous assay procedure involves adding the single reagent (CellTiter-Glo® Reagent) directly to cells cultured in serum-supplemented medium. Cell washing, removal of medium and multiple pipetting steps are not required. The system detects as few as 15 cells/well in a 384-well format in 10 minutes after adding reagent and mixing.
(§3) The homogeneous “add-mix-measure” format results in cell lysis and generation of a luminescent signal proportional to the amount of ATP present. The amount of ATP is directly proportional to the number of cells present in culture. The CellTiter-Glo® Assay generates a “glow-type” luminescent signal, produced by the luciferase reaction, which has a half-life generally greater than five hours, depending on cell type and medium used. Viable cells are reflected in relative luminescence units (RLU). The substrate, Beetle Luciferin, is oxidatively decarboxylated by recombinant firefly luciferase with concomitant conversion of ATP to AMP and generation of photons. The extended half-life eliminates the need to use reagent injectors and provides flexibility for continuous or batch mode processing of multiple plates. This cell proliferation assay an be used with various multiwell formats, e.g. 96 or 384 well format. Data can be recorded by luminometer or CCD camera imaging device. The luminescence output is presented as relative light units (RLU), measured over time.
(§4) Efficacy of Formula I compounds were measured by a cell proliferation assay employing the following protocol (Promega Corp. Technical Bulletin TB288; Mendoza et al (2002) Cancer Res. 62:5485-5488):
(§5) 1. An aliquot of 100 n1 of cell culture containing about 10^4 cells (PC3, Detroit562, or MDAMB361.1) in medium was deposited in each well of a 384-well, opaque-walled plate.
(§6) 2. Control wells were prepared containing medium and without cells.
(§7) 3. The compound was added to the experimental wells and incubated for 3-5 days.
(§8) 4. The plates were equilibrated to room temperature for approximately 30 minutes.
(§9) 5. A volume of CellTiter-Glo Reagent equal to the volume of cell culture medium present in each well was added.
(§10) 6. The contents were mixed for 2 minutes on an orbital shaker to induce cell lysis.
(§11) 7. The plate was incubated at room temperature for 10 minutes to stabilize the luminescence signal.
(§12) 8. Luminescence was recorded and reported in graphs as RLU=relative luminescence units.
(§13) Alternatively, cells were seeded at optimal density in a 96 well plate and incubated for 4 days in the presence of test compound. Alamar Blue™ was subsequently added to the assay medium, and cells were incubated for 6 h before reading at 544 nm excitation, 590 nm emission. EC50 values were calculated using a sigmoidal dose response curve fit.
(§14) The anti-proliferative effects of Formula I exemplary compounds were measured by the CellTiter-Glo® Assay against various tumor cell lines, including the following: […]

p110 alpha PI3K = target: T1, p110 alpha PI3K (Homo sapiens, UniProt P42336); test: p110α (alpha) PI3K Binding Assay (fluorescence polarization; alternatively radiometric); assay type: biochemical; conditions: tested for PI3K activity according to the methods of this invention
T1 construct: purchased Upstate Cell Signaling Solutions, Charlottesville, Va
Method: Binding Assays: Initial polarization experiments were performed on an Analyst HT 96-384 (Molecular Devices Corp, Sunnyvale, Calif.). Samples for fluorescence polarization affinity measurements were prepared by addition of 1:3 serial dilutions of p110 alpha PI3K (Upstate Cell Signaling Solutions, Charlottesville, Va.) starting at a final concentration of 20 ug/mL in polarization buffer (10 mM Tris pH 7.5, 50 mM NaCl, 4 mM MgCl2, 0.05% Chaps, and 1 mM DTT) to 10 mM PIP2 (Echelon-Inc., Salt Lake City, Utah.) final concentration. After an incubation time of 30 minutes at room temperature, the reactions were stopped by the addition of GRP-1 and PIP3-TAMRA probe (Echelon-Inc., Salt Lake City, Utah.) 100 nM and 5 nM final concentrations respectively. […] This experiment also establishes the appropriate protein concentration to use in subsequent competition experiments with inhibitors.
Inhibitor IC50 values were determined by addition of the 0.04 mg/mL p110 alpha PI3K (final concentration) combined with PIP2 (10 mM final concentration) to wells containing 1:3 serial dilutions of the antagonists in a final concentration of 25 mM ATP (Cell Signaling Technology, Inc., Danvers, Mass.) in the polarization buffer. After an incubation time of 30 minutes at room temperature, the reactions were stopped by the addition of GRP-1 and PIP3-TAMRA probe (Echelon-Inc., Salt Lake City, Utah.) 100 nM and 5 nM final concentrations respectively.
Alternatively, inhibition of PI3K was determined in a radiometric assay using purified, recombinant enzyme and ATP at a concentration of 1 uM. The Formula I compound was serially diluted in 100% DMSO. The kinase reaction was incubated for 1 h at room temperature, and the reaction was terminated by the addition of PBS. IC50 values were subsequently determined using sigmoidal dose-response curve fit (variable slope).

MDA-MB-361.1 = test: In Vitro Cell Proliferation Assay (CellTiter-Glo), MDA-MB-361.1; assay type: cell-based; conditions: MDA-MB-361.1, Breast, mutation status PI3K
Method: as §1, §2, §3, §4, §5, §6, §7, §8, §9, §10, §11, §12, §13, §14

T1 sequence (P42336 whole entry): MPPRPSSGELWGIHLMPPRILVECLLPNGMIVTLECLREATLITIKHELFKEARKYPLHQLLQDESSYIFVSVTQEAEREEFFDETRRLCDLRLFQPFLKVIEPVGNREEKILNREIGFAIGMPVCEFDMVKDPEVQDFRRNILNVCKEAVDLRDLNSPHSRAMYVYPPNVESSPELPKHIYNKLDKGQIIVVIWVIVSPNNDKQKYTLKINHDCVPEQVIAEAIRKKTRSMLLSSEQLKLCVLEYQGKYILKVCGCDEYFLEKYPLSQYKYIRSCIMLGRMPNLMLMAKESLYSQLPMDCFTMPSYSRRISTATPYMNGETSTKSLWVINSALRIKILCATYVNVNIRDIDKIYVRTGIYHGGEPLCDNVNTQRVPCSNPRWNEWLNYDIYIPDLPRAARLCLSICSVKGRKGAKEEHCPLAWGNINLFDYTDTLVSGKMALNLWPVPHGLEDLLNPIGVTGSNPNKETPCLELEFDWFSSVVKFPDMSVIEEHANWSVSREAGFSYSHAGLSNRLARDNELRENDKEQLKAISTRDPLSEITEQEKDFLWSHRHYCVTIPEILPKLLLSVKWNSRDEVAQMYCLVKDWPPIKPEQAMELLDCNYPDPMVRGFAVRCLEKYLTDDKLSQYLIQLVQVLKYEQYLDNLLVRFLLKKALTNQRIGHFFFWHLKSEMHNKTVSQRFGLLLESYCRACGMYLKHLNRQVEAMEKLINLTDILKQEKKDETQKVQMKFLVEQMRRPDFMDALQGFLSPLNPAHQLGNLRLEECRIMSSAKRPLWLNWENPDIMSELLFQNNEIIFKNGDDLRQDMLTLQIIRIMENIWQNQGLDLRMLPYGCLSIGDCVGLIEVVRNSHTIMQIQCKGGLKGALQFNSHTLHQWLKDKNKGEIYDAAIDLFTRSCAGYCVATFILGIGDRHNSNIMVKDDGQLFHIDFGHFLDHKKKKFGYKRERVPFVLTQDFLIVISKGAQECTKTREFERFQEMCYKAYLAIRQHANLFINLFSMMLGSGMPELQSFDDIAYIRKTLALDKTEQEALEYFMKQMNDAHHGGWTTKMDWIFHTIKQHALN
T1 sequence (P27986 whole entry partner): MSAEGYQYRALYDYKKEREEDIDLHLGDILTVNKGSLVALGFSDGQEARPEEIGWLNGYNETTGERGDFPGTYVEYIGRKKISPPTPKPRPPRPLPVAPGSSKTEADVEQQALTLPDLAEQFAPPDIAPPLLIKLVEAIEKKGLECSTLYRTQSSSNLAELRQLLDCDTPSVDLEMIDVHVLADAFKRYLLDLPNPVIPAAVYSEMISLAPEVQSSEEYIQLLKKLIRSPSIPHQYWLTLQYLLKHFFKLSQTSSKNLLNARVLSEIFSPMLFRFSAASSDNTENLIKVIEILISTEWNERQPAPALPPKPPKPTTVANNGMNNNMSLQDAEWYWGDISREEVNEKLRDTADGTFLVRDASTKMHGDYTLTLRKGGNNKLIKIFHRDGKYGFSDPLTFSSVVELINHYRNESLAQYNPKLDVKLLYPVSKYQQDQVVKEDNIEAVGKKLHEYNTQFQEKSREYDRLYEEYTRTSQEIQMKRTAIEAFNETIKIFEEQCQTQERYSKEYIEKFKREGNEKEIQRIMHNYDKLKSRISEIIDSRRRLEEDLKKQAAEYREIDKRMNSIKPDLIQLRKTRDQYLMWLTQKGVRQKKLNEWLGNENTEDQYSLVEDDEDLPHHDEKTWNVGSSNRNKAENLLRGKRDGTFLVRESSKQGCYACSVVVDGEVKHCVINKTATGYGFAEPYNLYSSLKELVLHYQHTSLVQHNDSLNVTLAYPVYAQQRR

| EC50 (PC3) [nM] | IC50 (p110 alpha PI3K) [nM] | EC50 (MDA-MB-361.1) [nM] | Structure (SMILES) |
| --- | --- | --- | --- |
| 2000 | 2.23 | 475 | Cn1ncc2c(Nc3ccc(S(C)(=O)=O)cc3)cc(-c3cccc4[nH]ncc34)nc21 [Compound 104, 6-(1H-indazol-4-yl)-1-methyl-N-(4-(methylsulfonyl)phenyl)-1H-pyrazolo[3,4-b]pyridin-4-amine] |
|  | 575 |  | Cn1ncc2c(Oc3ccc(S(C)(=O)=O)cc3)cc(-c3ccnc(O)c3)nc21 [Compound 120, 4-(1-methyl-4-(4-(methylsulfonyl)phenoxy)-1H-pyrazolo[3,4-b]pyridin-6-yl)pyridin-2-ol] |
|  | 399 |  | Cc1cccc(C)c1Oc1cc(-c2cccc3[nH]ncc23)nc2c1cnn2C [Compound 106, 4-(2,6-dimethylphenoxy)-6-(1H-indazol-4-yl)-1-methyl-1H-pyrazolo[3,4-b]pyridine] |
|  | 82.8 |  | CCCNc1cc(-c2cccc3[nH]ncc23)nc2c1cnn2C [Compound 103, 6-(1H-indazol-4-yl)-1-methyl-N-propyl-1H-pyrazolo[3,4-b]pyridin-4-amine] |
|  | 53 |  | COc1cccc(Oc2cc(-c3cccc4[nH]ncc34)nc3c2cnn3C)c1 [Compound 107, 6-(1H-indazol-4-yl)-4-(3-methoxyphenoxy)-1-methyl-1H-pyrazolo[3,4-b]pyridine] |
| 881 |  | 965 | Cn1ncc2c(Oc3ccc(S(C)(=O)=O)cc3)cc(-c3cccc4[nH]ncc34)nc21 [Compound 101, 6-(1H-indazol-4-yl)-1-methyl-4-(4-(methylsulfonyl)phenoxy)-1H-pyrazolo[3,4-b]pyridine] |
|  | 153 |  | Cn1ncc2c(Oc3ccc(S(C)(=O)=O)cc3)cc(-c3cccc4c(N)noc34)nc21 [Compound 121, 7-(1-methyl-4-(4-(methylsulfonyl)phenoxy)-1H-pyrazolo[3,4-b]pyridin-6-yl)benzo[d]isoxazol-3-amine] |
|  | 224 |  | Cn1ncc2c(Oc3ccc(S(C)(=O)=O)cc3)cc(-c3ccc4[nH]ncc4c3)nc21 [Compound 102, 6-(1H-indazol-5-yl)-1-methyl-4-(4-(methylsulfonyl)phenoxy)-1H-pyrazolo[3,4-b]pyridine] |
| 2400 |  | 1000 | CNC(=O)c1cccc(-c2cc(-c3cccc4[nH]ncc34)nc3c2cnn3C)c1 [Compound 111, 3-(6-(1H-indazol-4-yl)-1-methyl-1H-pyrazolo[3,4-b]pyridine-4-yl)-N-methylbenzamide] |
| 561 |  | 749 | Cn1ncc2c(-c3cccc(NS(C)(=O)=O)c3)cc(-c3cccc4[nH]ncc34)nc21 [Compound 113, N-(3-(6-(1H-indazol-4-yl)-1-methyl-1H-pyrazolo[3,4-b]pyridin-4-yl)phenyl)methanesulfonamide] |
| 750 |  | 346 | Cn1ncc2c(-c3ccc(S(C)(=O)=O)cc3)cc(-c3cccc4[nH]ncc34)nc21 [Compound 115, 6-(1H-indazol-4-yl)-1-methyl-4-(4-(methylsulfonyl)phenyl)-1H-pyrazolo[3,4-b]pyridine] |
|  | 16 |  | COc1ccc(Oc2cc(-c3cccc4[nH]ncc34)nc3c2cnn3C)cc1OC [Compound 108, 4-(3,4-dimethoxyphenoxy)-6-(1H-indazol-4-yl)-1-methyl-1H-pyrazolo[3,4-b]pyridine] |
|  | 13.7 |  | Cn1ncc2c(Oc3ccc(S(C)(=O)=O)cc3)cc(-c3cccc4c(N)n[nH]c34)nc21 [Compound 105, 7-(1-methyl-4-(4-(methylsulfonyl)phenoxy)-1H-pyrazolo[3,4-b]pyridin-6-yl)-1H-indazol-3-amine] |
| 4900 |  | 2400 | COc1cc(-c2cc(Oc3ccc(S(C)(=O)=O)cc3)c3cnn(C)c3n2)ccn1 [Compound 118, 6-(2-methoxypyridin-4-yl)-1-methyl-4-(4-(methylsulfonyl)phenoxy)-1H-pyrazolo[3,4-b]pyridine] |
|  | 47.5 |  | COc1ccc(-c2cc(Oc3ccc(S(C)(=O)=O)cc3)c3cnn(C)c3n2)cn1 [Compound 117, 6-(6-methoxypyridin-3-yl)-1-methyl-4-(4-(methylsulfonyl)phenoxy)-1H-pyrazolo[3,4-b]pyridine] |
